Assay results as given in patent US7262052B1, “α-2/δ gene” (Warner Lambert Company, priority 1999, dated 2007).
Values joined by “and” are separate entries in the source; they are usually repeats but may differ in a detail not shown here. Equal values may be shown once.

B1: α2δC: novel human α2δ-C calcium channel subunit (SEQ ID NO 5), expressed from injected cRNA (protein, listed as Homo sapiens)
chain: MAGPGSPRRASRGASALLAAALLYAALGDVVRSEQQIPLSVVKLWASAFGGEIKSIAAKYSGSQLLQKKYKEYEKDVAIEEIDGLQLVKKLAKNMEEMFHKKSEAVRRLVEAAEEAHLKHEFDADLQYEYFNAVLINERDKDGNFLELGKEFILAPNDHFNNLPVNISLSDVQVPTNMYNKDPAIVNGVYWSESLNKVFVDNFDRDPSLIWQYFGSAKGFFRQYPGIKWEPDENGVIAFDCRNRKWYIQAATSPKDVVILVDVSGSMKGLRLTIAKQTVSSILDTLGDDDFFNIIAYNEELHYVEPCLNGTLVQADRTNKEHFREHLDKLFAKGIGMLDIALNEAFNILSDFNHTGQGSICSQAIMLITDGAVDTYDTIFAKYNWPDRKVRIFTYLIGREAAFADNLKWMACANKGFFTQISTLADVQENVMEYLHVLSRPKVIDQEHDVVWTEAYIDSTLTDDQGPVLMTTVAMPVFSKQNETRSKGILLGVVGTDVPVKELLKTIPKYKLGIHGYAFAITNNGYILTHPELRLLYEEGKKRRKPNYSSVDLSEVEWEDRDDVLRNAMVNRKTGKFSMEVKKTVDKGKRVLVMTNDYYYTDIKGTPFSLGVALSRGHGKYFFRGNVTIEEGLHDLEHPDVSLADEWSYCNTDLHPEHRHLSQLEAIKLYLKGKEPLLQCDKELIQEVLFDAVVSAPIEAYWTSLALNKSENSDKGVEVAFLGTRTGLSRINLFVGAEQLTNQDFLKAGDKENIFNADHFPLWYRRAAEQIPGSFVYSIPFSTGPVNKSNVVTASTSIQLLDERKSPVVAAVGIQMKLEFFQRKFWTASRQCASLDGKCSISCDDETVNCYLIDNNGFILVSEDYTQTGDFFGEIEGAVMNKLLTMGSFKRITLYDYQAMCRANKESSDGAHGLLDPYNAFLSAVKWIMTELVLFLVEFNLCSWWHSDMTAKAQKLKQTLEPCDTEYPAFVSERTIKETTGNIACEDCSKSFVIQQIPSSNLFMVVVDSSCLCESVAPITMAPIEIRYNESLKCERLKAQKIRRRPESCHGFHPEENARECGGAPSLQAQTVLLLLPLLLMLFSR

Assays:
Human α2δ-B = target: T1, Human α2δ-B (Homo sapiens, UniProt Q9NY47); experiment: [3H]gabapentin saturation binding, membranes of transiently transfected COS-7 cells
T1 construct: transiently transfected with the full-length porcine α2δ-A, and human α2δ-B genes; expressed in transfected cells; host or cells: COS-7 cells, pcDNA3.1 vector, lipofectamine; membranes
Source text: […]. […] […].
The filters were then counted in a scintillation counter.

[1] = system: voltage-gated Ca2+ channels (α1B, β1C subunits); experiment: Ca2+ channel currents in Xenopus oocytes injected with cRNA, two-electrode voltage clamp; format: cell-based; conditions: for increase in current compared to no α2δ subunits: co-injected with α1B and β1C in Xenopus oocytes
Experimental: Since α2δ-C has sequence homology to α2δ-A, and α2δ-A functions as a subunit of VSCCs, experiments were undertaken to determine if α2δ-C can replace α2δ-A and produce functional VSCCs. Xenopus oocytes were isolated using standard techniques and injected with cRNA for α1B, β1C and α2δ-C subunits of voltage-gated Ca^2+ channels. Four days to 1 week following injection of cRNA, Ca^2+ channel currents were measured using two-electrode voltage clamp with 5 mM Ba^2+ as the charge carrier. Test pulses to +10 mV from a holding membrane potential of −80 mV were applied to evoke Ca^2+ channel currents. Peak inward currents evoked during the test pulse were measured. The amplitude of inward currents is proportional to the expression level of voltage-gated Ca^2+ channels.

T1 sequence (Q9NY47 19-1145 isoform Q9NY47-3 limits assumed): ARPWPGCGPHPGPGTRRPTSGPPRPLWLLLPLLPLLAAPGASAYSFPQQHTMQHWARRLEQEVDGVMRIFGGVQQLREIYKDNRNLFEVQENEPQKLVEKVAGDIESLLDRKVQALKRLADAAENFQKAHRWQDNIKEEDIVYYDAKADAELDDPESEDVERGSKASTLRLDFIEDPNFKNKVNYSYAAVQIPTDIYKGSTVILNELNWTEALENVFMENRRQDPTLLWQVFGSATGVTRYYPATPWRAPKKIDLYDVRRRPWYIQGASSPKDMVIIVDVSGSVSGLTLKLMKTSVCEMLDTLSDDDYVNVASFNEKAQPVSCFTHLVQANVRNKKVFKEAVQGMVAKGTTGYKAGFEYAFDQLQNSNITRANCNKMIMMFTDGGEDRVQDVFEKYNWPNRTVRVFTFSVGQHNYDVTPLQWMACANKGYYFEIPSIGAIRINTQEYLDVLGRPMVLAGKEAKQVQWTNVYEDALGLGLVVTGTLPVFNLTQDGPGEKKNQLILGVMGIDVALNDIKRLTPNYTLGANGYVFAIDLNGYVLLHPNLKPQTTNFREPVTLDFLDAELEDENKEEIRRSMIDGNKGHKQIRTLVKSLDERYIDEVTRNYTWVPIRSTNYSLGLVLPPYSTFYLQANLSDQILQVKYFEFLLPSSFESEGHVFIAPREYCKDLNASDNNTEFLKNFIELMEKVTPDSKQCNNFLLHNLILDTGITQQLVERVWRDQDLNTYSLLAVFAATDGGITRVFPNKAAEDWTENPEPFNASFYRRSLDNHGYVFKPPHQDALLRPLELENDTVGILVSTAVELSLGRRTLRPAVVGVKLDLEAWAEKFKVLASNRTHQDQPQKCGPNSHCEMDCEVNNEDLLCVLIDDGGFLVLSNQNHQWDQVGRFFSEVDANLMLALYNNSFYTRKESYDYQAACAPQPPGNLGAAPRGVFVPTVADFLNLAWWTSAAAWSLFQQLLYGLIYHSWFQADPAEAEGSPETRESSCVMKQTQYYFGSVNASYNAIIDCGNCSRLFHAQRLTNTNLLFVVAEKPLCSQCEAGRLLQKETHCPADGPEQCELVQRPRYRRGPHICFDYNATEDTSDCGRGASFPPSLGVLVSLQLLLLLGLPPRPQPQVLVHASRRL

Row | Molecule | Kd (Human α2δ-B; KD, single determinations (n = 2), 21° C., COS-7 membranes) | Kd (Human α2δ-B; Mean KD, mean of n = 2) [nM] | binding of [3H]gabapentin (in words) (Human α2δ-B; full-length gene product expressed transiently in COS-7) | increase in current compared to no α2δ subunits [1] [fold] | peak inward current amplitude ([1]; co-injected with α1B and β1C, 5 mM Ba2+, test pulse to +10 mV from −80 mV, n=20, p<0.01 vs no α2δ) [nA]
1 | NCC1(CC(=O)O)CCCCC1 [[3H]gabapentin, gabapentin] | 32.6 nM and 87.2 nM | 59.9 | high affinity | – | –
2 | α2δA: known α2δ-A subunit of the voltage-sensitive calcium channel, comparator | – | – | – | 20 | –
3 | B1 | – | – | – | 2 | 213±12
